Measured values from patent publication US8192962B2, “Processes for detecting toxic substances” (Daikin Industries, Ltd., priority 2001, dated 2012).

Tested on: Detoxification protein genes
Test: DNA chip mRNA expression in yeast, detoxification protein genes (Table 8)
Assay type: cell-based, Saccharomyces cerevisiae S288C
Procedure, shortened: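 Cells were grown at 25° C. in YPD, treated at logarithmic phase for 2 h with a chemical at a concentration inhibiting growth but not causing death, and compared with untreated cultures. Labeled cDNA was hybridized to a DNA chip carrying all yeast genes, and the expression ratio was taken from scanner fluorescence.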

Substance: manganese ethylenebis(dithiocarbamate) [(8)]
- The level of expressed mRNA in the presence of chemical substance/The level of expressed mRNA in the absence of chemical substance (yeast gene YBL064C): 2.4
- The level of expressed mRNA in the presence of chemical substance/The level of expressed mRNA in the absence of chemical substance (yeast gene YBR008C): 2.8
- The level of expressed mRNA in the presence of chemical substance/The level of expressed mRNA in the absence of chemical substance (yeast gene YBR145W): 1.0
- The level of expressed mRNA in the presence of chemical substance/The level of expressed mRNA in the absence of chemical substance (yeast gene YBR244W): 1.0
- The level of expressed mRNA in the presence of chemical substance/The level of expressed mRNA in the absence of chemical substance (yeast gene YBR293W): 0.9
- The level of expressed mRNA in the presence of chemical substance/The level of expressed mRNA in the absence of chemical substance (yeast gene YCL035C): 1.4
- The level of expressed mRNA in the presence of chemical substance/The level of expressed mRNA in the absence of chemical substance (yeast gene YCL069W): 1.3
- The level of expressed mRNA in the presence of chemical substance/The level of expressed mRNA in the absence of chemical substance (yeast gene YCR083W): 1.5
- The level of expressed mRNA in the presence of chemical substance/The level of expressed mRNA in the absence of chemical substance (yeast gene YDL100C): 1.7
- The level of expressed mRNA in the presence of chemical substance/The level of expressed mRNA in the absence of chemical substance (yeast gene YDL168W): 1.7
- The level of expressed mRNA in the presence of chemical substance/The level of expressed mRNA in the absence of chemical substance (yeast gene YDR256C): 0.8
- The level of expressed mRNA in the presence of chemical substance/The level of expressed mRNA in the absence of chemical substance (yeast gene YDR453C): 1.3
- The level of expressed mRNA in the presence of chemical substance/The level of expressed mRNA in the absence of chemical substance (yeast gene YDR513W): 1.6
- The level of expressed mRNA in the presence of chemical substance/The level of expressed mRNA in the absence of chemical substance (yeast gene YDR538W): 1.0
- The level of expressed mRNA in the presence of chemical substance/The level of expressed mRNA in the absence of chemical substance (yeast gene YEL027W): 0.9
- The level of expressed mRNA in the presence of chemical substance/The level of expressed mRNA in the absence of chemical substance (yeast gene YEL065W): 0.9
- The level of expressed mRNA in the presence of chemical substance/The level of expressed mRNA in the absence of chemical substance (yeast gene YER185W): 1.0
- The level of expressed mRNA in the presence of chemical substance/The level of expressed mRNA in the absence of chemical substance (yeast gene YFL050C): 0.9
- The level of expressed mRNA in the presence of chemical substance/The level of expressed mRNA in the absence of chemical substance (yeast gene YGL013C): 1.4
- The level of expressed mRNA in the presence of chemical substance/The level of expressed mRNA in the absence of chemical substance (yeast gene YGL254W): 1.4
- The level of expressed mRNA in the presence of chemical substance/The level of expressed mRNA in the absence of chemical substance (yeast gene YGR088W): 0.8
- The level of expressed mRNA in the presence of chemical substance/The level of expressed mRNA in the absence of chemical substance (yeast gene YGR138C): 1.0
- The level of expressed mRNA in the presence of chemical substance/The level of expressed mRNA in the absence of chemical substance (yeast gene YGR197C): 0.8
- The level of expressed mRNA in the presence of chemical substance/The level of expressed mRNA in the absence of chemical substance (yeast gene YGR209C): 1.6
- The level of expressed mRNA in the presence of chemical substance/The level of expressed mRNA in the absence of chemical substance (yeast gene YGR224W): 0.6
- The level of expressed mRNA in the presence of chemical substance/The level of expressed mRNA in the absence of chemical substance (yeast gene YHL040C): 1.5
- The level of expressed mRNA in the presence of chemical substance/The level of expressed mRNA in the absence of chemical substance (yeast gene YHL047C): 1.5
- The level of expressed mRNA in the presence of chemical substance/The level of expressed mRNA in the absence of chemical substance (yeast gene YHR008C): 0.9
- The level of expressed mRNA in the presence of chemical substance/The level of expressed mRNA in the absence of chemical substance (yeast gene YHR048W): 1.9
- The level of expressed mRNA in the presence of chemical substance/The level of expressed mRNA in the absence of chemical substance (yeast gene YHR053C): 2.2
- The level of expressed mRNA in the presence of chemical substance/The level of expressed mRNA in the absence of chemical substance (yeast gene YHR055C): 2.1
- The level of expressed mRNA in the presence of chemical substance/The level of expressed mRNA in the absence of chemical substance (yeast gene YIR002C): 1.2
- The level of expressed mRNA in the presence of chemical substance/The level of expressed mRNA in the absence of chemical substance (yeast gene YIR038C): 1.3
- The level of expressed mRNA in the presence of chemical substance/The level of expressed mRNA in the absence of chemical substance (yeast gene YJL101C): 1.3
- The level of expressed mRNA in the presence of chemical substance/The level of expressed mRNA in the absence of chemical substance (yeast gene YJR104C): 1.5
- The level of expressed mRNA in the presence of chemical substance/The level of expressed mRNA in the absence of chemical substance (yeast gene YKL026C): 1.8
- The level of expressed mRNA in the presence of chemical substance/The level of expressed mRNA in the absence of chemical substance (yeast gene YKL064W): 0.9
- The level of expressed mRNA in the presence of chemical substance/The level of expressed mRNA in the absence of chemical substance (yeast gene YKR066C): 0.7
- The level of expressed mRNA in the presence of chemical substance/The level of expressed mRNA in the absence of chemical substance (yeast gene YKR105C): 1.3
- The level of expressed mRNA in the presence of chemical substance/The level of expressed mRNA in the absence of chemical substance (yeast gene YKR106W): 1.3
- The level of expressed mRNA in the presence of chemical substance/The level of expressed mRNA in the absence of chemical substance (yeast gene YLL028W): 0.7
- The level of expressed mRNA in the presence of chemical substance/The level of expressed mRNA in the absence of chemical substance (yeast gene YLL057C): 1.4
- The level of expressed mRNA in the presence of chemical substance/The level of expressed mRNA in the absence of chemical substance (yeast gene YLL060C): 5.8
- The level of expressed mRNA in the presence of chemical substance/The level of expressed mRNA in the absence of chemical substance (yeast gene YLR043C): 1.1
- The level of expressed mRNA in the presence of chemical substance/The level of expressed mRNA in the absence of chemical substance (yeast gene YLR046C): 0.5
- The level of expressed mRNA in the presence of chemical substance/The level of expressed mRNA in the absence of chemical substance (yeast gene YML028W): 0.8
- The level of expressed mRNA in the presence of chemical substance/The level of expressed mRNA in the absence of chemical substance (yeast gene YML116W): 2.2
- The level of expressed mRNA in the presence of chemical substance/The level of expressed mRNA in the absence of chemical substance (yeast gene YMR015C): 0.7
- The level of expressed mRNA in the presence of chemical substance/The level of expressed mRNA in the absence of chemical substance (yeast gene YMR038C): 1.9
- The level of expressed mRNA in the presence of chemical substance/The level of expressed mRNA in the absence of chemical substance (yeast gene YNL239W): 1.3
- The level of expressed mRNA in the presence of chemical substance/The level of expressed mRNA in the absence of chemical substance (yeast gene YNL241C): 0.9
- The level of expressed mRNA in the presence of chemical substance/The level of expressed mRNA in the absence of chemical substance (yeast gene YNL259C): 1.5
- The level of expressed mRNA in the presence of chemical substance/The level of expressed mRNA in the absence of chemical substance (yeast gene YOL158C): 0.7
- The level of expressed mRNA in the presence of chemical substance/The level of expressed mRNA in the absence of chemical substance (yeast gene YOR031W): 0.9
- The level of expressed mRNA in the presence of chemical substance/The level of expressed mRNA in the absence of chemical substance (yeast gene YOR153W): 0.5
- The level of expressed mRNA in the presence of chemical substance/The level of expressed mRNA in the absence of chemical substance (yeast gene YOR247W): 0.7
- The level of expressed mRNA in the presence of chemical substance/The level of expressed mRNA in the absence of chemical substance (yeast gene YOR251C): 1.1
- The level of expressed mRNA in the presence of chemical substance/The level of expressed mRNA in the absence of chemical substance (yeast gene YOR273C): 0.6
- The level of expressed mRNA in the presence of chemical substance/The level of expressed mRNA in the absence of chemical substance (yeast gene YPL163C): 0.5
- The level of expressed mRNA in the presence of chemical substance/The level of expressed mRNA in the absence of chemical substance (yeast gene YPR200C): 1.4
